pIC50: −log10 of the molar value.
Tests used:
[1] = target: Mitogen-activated protein kinase 8 (Homo sapiens, UniProt P45983); assay: Inhibition of JNK1 (unknown origin) using ATF2 as substrate measured after 1 hr by ELISA
[2] = target: T1, Dual specificity protein kinase TTK (Homo sapiens, UniProt P33981); assay: Inhibition of MPS1 (unknown origin) using biotin-labeled AGAGLARHTDDEMTGYVA as substrate after 90 mins by DELFIA
T1 sequence (P33981 whole entry): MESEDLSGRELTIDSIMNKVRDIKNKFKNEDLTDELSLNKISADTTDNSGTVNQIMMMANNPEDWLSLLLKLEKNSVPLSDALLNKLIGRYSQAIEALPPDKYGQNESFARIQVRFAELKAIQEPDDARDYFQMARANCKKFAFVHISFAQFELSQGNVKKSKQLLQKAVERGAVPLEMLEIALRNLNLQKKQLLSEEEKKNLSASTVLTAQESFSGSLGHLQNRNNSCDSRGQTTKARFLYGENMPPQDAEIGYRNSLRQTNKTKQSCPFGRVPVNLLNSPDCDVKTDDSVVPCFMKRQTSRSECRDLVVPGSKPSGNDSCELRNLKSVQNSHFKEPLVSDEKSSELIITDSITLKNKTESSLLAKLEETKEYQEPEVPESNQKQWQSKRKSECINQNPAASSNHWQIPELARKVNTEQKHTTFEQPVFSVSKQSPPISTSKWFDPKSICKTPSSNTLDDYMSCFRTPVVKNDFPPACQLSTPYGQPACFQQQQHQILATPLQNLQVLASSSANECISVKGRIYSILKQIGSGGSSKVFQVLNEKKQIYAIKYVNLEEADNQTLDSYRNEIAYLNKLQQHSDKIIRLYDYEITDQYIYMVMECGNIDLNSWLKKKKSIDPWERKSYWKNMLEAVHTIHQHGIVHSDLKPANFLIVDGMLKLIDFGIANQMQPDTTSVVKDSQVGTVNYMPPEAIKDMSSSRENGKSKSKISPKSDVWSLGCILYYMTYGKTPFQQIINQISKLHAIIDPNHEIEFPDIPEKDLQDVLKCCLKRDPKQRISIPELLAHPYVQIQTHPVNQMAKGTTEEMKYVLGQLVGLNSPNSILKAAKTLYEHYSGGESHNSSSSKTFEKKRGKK

[3] = Lipophilicity index, log K of the compound by RP-HPLC analysis; assay type: physicochemical
[4] = Metabolic stability in Sprague-Dawley rat hepatocytes assessed as compound remaining at 2 uM after 1 hr by LC-MS/MS analysis; assay type: ADME, cell-based, Hepatocyte; conditions: read-out: Stability
[5] = Cmax in Sprague-Dawley rat at 1 mg/kg, po by LC-MS/MS analysis; assay type: ADME, organism-based; design: dose 1 mg/kg, route oral; conditions: in vivo
[6] = Volume of distribution at steady state in Sprague-Dawley rat at 0.5 mg/kg, iv by LC-MS/MS analysis; assay type: ADME, organism-based; design: dose 0.5 mg/kg, route intravenous; conditions: in vivo, read-out: Vdss
[7] = Clearance in Sprague-Dawley rat at 0.5 mg/kg, iv by LC-MS/MS analysis; assay type: ADME, organism-based; design: dose 0.5 mg/kg, route intravenous; conditions: in vivo
A549 = assay: cells; conditions: Homo sapiens, A549, 72 h
[8] = target: Serine/threonine-protein kinase PLK1 (Homo sapiens, UniProt P53350); assay: Inhibition of human PLK1
[9] = Oral bioavailability in Sprague-Dawley rat at 1 mg/kg by LC-MS/MS analysis; assay type: ADME, organism-based; conditions: in vivo
[10] = AUC in Sprague-Dawley rat at 1 mg/kg, po by LC-MS/MS analysis; assay type: ADME, organism-based; design: dose 1 mg/kg, route oral; conditions: plasma
[11] = Apparent permeability across MDCK cells; assay type: ADME, cell-based, Canis lupus familiaris; conditions: dog
[12] = target: T1, Dual specificity protein kinase TTK; assay: Inhibition of FLAG-tagged MPS1 phosphorylation in human RERF-LC-AI Tet-off cells after 3 hrs; assay type: cell-based
[13] = target: T1, Dual specificity protein kinase TTK

Mitogen-activated protein kinase 8, sequence (P45983 whole entry): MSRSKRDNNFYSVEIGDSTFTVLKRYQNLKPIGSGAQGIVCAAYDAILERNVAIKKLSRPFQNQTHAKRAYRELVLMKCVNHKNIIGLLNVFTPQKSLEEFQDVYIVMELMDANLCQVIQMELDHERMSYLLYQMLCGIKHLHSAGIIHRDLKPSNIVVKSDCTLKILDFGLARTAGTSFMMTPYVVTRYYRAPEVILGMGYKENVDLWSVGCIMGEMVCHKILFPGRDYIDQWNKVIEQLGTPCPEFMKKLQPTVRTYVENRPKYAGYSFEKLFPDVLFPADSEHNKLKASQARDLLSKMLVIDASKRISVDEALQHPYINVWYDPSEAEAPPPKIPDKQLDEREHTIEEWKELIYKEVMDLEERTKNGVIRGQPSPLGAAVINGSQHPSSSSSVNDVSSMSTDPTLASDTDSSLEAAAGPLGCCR
Serine/threonine-protein kinase PLK1, sequence (P53350 whole entry): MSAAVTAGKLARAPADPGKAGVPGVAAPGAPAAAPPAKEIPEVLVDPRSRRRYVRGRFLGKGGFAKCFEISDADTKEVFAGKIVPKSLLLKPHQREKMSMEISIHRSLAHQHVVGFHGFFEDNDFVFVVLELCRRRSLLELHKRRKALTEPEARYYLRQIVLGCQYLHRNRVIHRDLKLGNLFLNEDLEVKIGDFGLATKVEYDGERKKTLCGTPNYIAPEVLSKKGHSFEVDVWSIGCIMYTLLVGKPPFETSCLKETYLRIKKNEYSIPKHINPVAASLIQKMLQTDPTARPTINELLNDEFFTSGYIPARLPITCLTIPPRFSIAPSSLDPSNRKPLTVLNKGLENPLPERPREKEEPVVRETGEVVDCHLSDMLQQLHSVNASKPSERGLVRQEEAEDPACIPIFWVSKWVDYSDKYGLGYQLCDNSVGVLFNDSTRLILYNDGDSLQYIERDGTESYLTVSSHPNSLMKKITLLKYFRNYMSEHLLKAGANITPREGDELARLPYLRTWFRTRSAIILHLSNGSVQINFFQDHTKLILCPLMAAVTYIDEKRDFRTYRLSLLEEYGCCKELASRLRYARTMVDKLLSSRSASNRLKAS

| Structure (SMILES) | pIC50 [1] | pIC50 [2] | log K [3] | pIC50 (A549) | pIC50 [12] | further results |
| --- | --- | --- | --- | --- | --- | --- |
| CCOc1ccc2[nH]nc(-c3cccc(C(N)=O)c3)c2c1 | 7.37 | 6.72 | – | – | – | – |
| CC(=O)Nc1cccc(-c2n[nH]c3cc(-c4cnn(C)c4)c(NC4CCCCC4)cc23)c1 | 7.92 | 7.92 | 0.94 | 6.55 | 7.52 | remaining at 1 h, 2 µM [4]: 64%; Cmax [5]: 18 ng/mL; Vd [6]: 1 L/kg; clearance [7]: 19 mL/min/kg; pIC50 [8]: < 5.30; bioavailability [9]: 17%; AUC [10]: 149 ng·h/mL; Papp [11]: 20.5 ×10⁻⁶ cm/s |
| Cn1cc(-c2cc3[nH]nc(-c4cccc(S(N)(=O)=O)c4)c3cc2NC2CCCCC2)cn1 | 7.43 | 7.98 | 0.92 | 6.82 | 7.69 | remaining at 1 h, 2 µM [4]: 69%; Cmax [5]: 1.4 ng/mL; Vd [6]: 2.8 L/kg; clearance [7]: 33 mL/min/kg; pIC50 [8]: < 5.30; bioavailability [9]: 2.3%; AUC [10]: 11.5 ng·h/mL; Papp [11]: 2.69 ×10⁻⁶ cm/s |
| CCOc1ccc2[nH]nc(-c3cccc(NC(C)=O)c3)c2c1 | 7.10 | 6.94 | – | – | – | – |
| CCOc1cc2c(-c3ccc(C)c(S(N)(=O)=O)c3)n[nH]c2cc1-c1cnn(C)c1 | 7.36 | 8.44 | 0.82 | 6.16 | 6.70 | – |
| c1ccc(-c2[nH]nc3ccccc23)cc1 | – | 5.68 | – | – | – | – |
| Oc1c2ccccc2c2c3c(cccc13)N=N2 [SP-600125] | – | – | – | – | – | pIC50 [13]: 7.01 |
| CCOc1ccc2[nH]nc(-c3ccc(NC(C)=O)cc3)c2c1 | 6.77 | 6.36 | – | – | – | – |
| CCOc1cc2c(-c3cccc(S(N)(=O)=O)c3)n[nH]c2cc1-c1ccccc1 | 5.99 | 6.76 | 0.91 | < 5.00 | < 5.00 | – |
| CCOc1cc2c(-c3cccc(S(N)(=O)=O)c3)n[nH]c2cc1-c1cn[nH]c1 | 6.85 | 8.01 | 0.74 | < 5.00 | 5.68 | – |
| CCOc1ccc2[nH]nc(-c3ccccc3)c2c1 | – | 6.30 | – | – | – | – |
| CCOc1cc2c(-c3cccc(S(N)(=O)=O)c3)n[nH]c2cc1-c1cnn(CC(C)C)c1 | 6.36 | 6.92 | 0.87 | 5.19 | 5.39 | – |
| CCc1cccc(CC)c1NC(=O)c1nn(C)c2c1CCc1cnc(Nc3ccc(C(=O)NC4CCN(C)CC4)cc3OC(F)(F)F)nc1-2 | – | – | – | 5.90 | – | – |
| Cn1cc(-c2cc3[nH]nc(-c4cccc(S(N)(=O)=O)c4)c3cc2OC2CCCCC2)cn1 | 6.93 | 8.10 | 0.93 | 6.19 | 7.13 | – |
| CCOc1ccc2[nH]nc(-c3cccc(S(N)(=O)=O)c3)c2c1 | 6.82 | 7.55 | 0.79 | < 4.70 | 5.56 | – |
| Cc1cc(N2CCOCC2)ccc1Nc1nc(NC2CCCCC2)c2nc[nH]c2n1 | – | – | – | < 5.00 | – | – |
| CCOc1cc2c(-c3cccc(NC(C)=O)c3)n[nH]c2cc1C#N | 7.37 | 7.49 | 0.87 | 5.20 | 5.01 | – |
| CCOc1cc2c(-c3cccc(S(N)(=O)=O)c3)n[nH]c2cc1C#N | 6.76 | 7.77 | 0.86 | < 4.70 | 5.47 | – |
| CCOc1cc2c(-c3cccc(S(N)(=O)=O)c3)n[nH]c2cc1-c1cnn(C)c1 | 7.03 | 8.51 | 0.79 | 5.99 | 7.07 | Papp [11]: 0.6 ×10⁻⁶ cm/s |

Reference: ChEMBL document CHEMBL2380259, “Indazole-based potent and cell-active Mps1 kinase inhibitors: rational design from pan-kinase inhibitor anthrapyrazolone (SP600125)” (J Med Chem, 2013)
